Drawing on patent US11478451B1, “Macrocyclic chlorine substituted indole derivatives” (Bayer Aktiengesellschaft, priority 2017, dated 2022), this text covers IC50 and EC50 for 7 compounds.

The test system of series [1] is SUDHL10 cells. Put plainly: Induction of cytotoxicity (CellTiter-Glo, 5 h), SUDHL10. Conditions: SUDHL10, 5 h. (ATP-based viability assays read luminescence as a measure of living cells.)
For series [2], the system named is SUDHL5 cells. The series can be described thus: Antiproliferation assay (CellTiter-Glo, 72 h), SUDHL5. Format: cell-based. The note with it: IC50, median, SUDHL5, 72 h, read-out: Antiproli SUDHL5 [M] (median). The essentials:
(§1)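 CellTiter-Glo luminescence readout; 72 h compound exposure, 37 °C, humidified; rim wells excluded; time-zero reference plate plated in parallel and read identically.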

The test system of series [3] is SNU-389 cells. Put plainly: Antiproliferation assay (CellTiter-Glo, 72 h), SNU-389. Type of series: cell-based. The note with it: read-out: Antiproli SNU-389 [M] median. As to the method: (§2) Assessment of the Anti-Proliferative Effect of Compounds in Different Cell Lines
(§3) The impact of compounds on the proliferation of different cell lines was assessed using the CellTiter-Glo® Luminescent Cell Viability reagent from Promega (G7573).
(§4) In parallel, cells were plated in a reference (day 0) plate for time zero determination.
(§5) Rim wells were excluded. The cells were incubated for 72 h hours in a humidified incubator at 37° C. The day 0 plate was measured by adding 30 μL/well of CTG solution (CellTiter-Glo® Luminescent Cell Viability reagent, Promega G7573) to time zero wells in the reference plate followed by a 10 minutes incubation and luminescence reading at 0.1 ms. using the PHERAstar FS microplate reader (BMG Labtech).
(§6) After 72 h incubation, the treated plates were measured in the same way as the day 0 plate mentioned above.

The test system of series [4] is AMO-1 cells. The series can be described thus: Antiproliferation assay (CellTiter-Glo, 72 h), AMO-1. Format: cell-based. Conditions: IC50, median, AMO-1, 72 h, read-out: Antiproli AMO-1 [M] median. The essentials:
as §1

The subject of series [5] is SUDHL10 cells. The series can be described thus: Induction of caspase-3/7 activity (Caspase-Glo 3/7), SUDHL10. Type of series: cell-based. Conditions: EC50, median, SUDHL10, 3 h treatment. Put shortly: (§7)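 Caspase-Glo 3/7 luminescence after 3 h compound treatment, 37 °C, humidified; medium-only background subtracted; rim wells excluded.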
In series [6] the test system is HMC-1-8 cells. The series can be described thus: Antiproliferation assay (CellTiter-Glo, 72 h), HMC-1-8. Type of series: cell-based. Conditions: IC50, median, HMC-1-8, 72 h, read-out: Antiproli HMC-1-8 [M] median. The essentials:
as §1

In series [7] the test system is SUDHL5 cells. The series can be described thus: Induction of caspase-3/7 activity (Caspase-Glo 3/7), SUDHL5. Type of series: cell-based. The note with it: EC50, median, SUDHL5, 3 h treatment. Put shortly:
as §7

In series [8] the test system is DMS-114 cells. Put plainly: Antiproliferation assay (CellTiter-Glo, 72 h), DMS-114. Conditions: Homo sapiens, DMS-114, 72 h; read-out: Antiproli DMS-114 [M] median. Format: cell-based. As to the method:
as §2, §3, §4, §5, §6

The test system of series [9] is SUDHL5 cells. The series can be described thus: Induction of cytotoxicity (CellTiter-Glo, 5 h), SUDHL5. The note with it: read-out: Cytotox SUDHL5 [M] (median); IC50, median; SUDHL5, 5 h.
Series [10] concerns MV-4-11 cells. Put plainly: Antiproliferation assay (CellTiter-Glo, 72 h), MV-4-11. Format: cell-based. Conditions: IC50, median; MV-4-11, 72 h; read-out: Antiproli MV-4-11 [M] median. As to the method:
as §2, §3, §4, §5, §6

In series [11] the target is MCL-1 (Homo sapiens (Human), UniProt Q07820, K194A/K197A/R201A). The series can be described thus: Protein-protein interaction assay MCL-1/Noxa BH3 peptide (MCL-1 assay), TR-FRET. Type of series: binding. The note with it: IC50, median; MCL-1/Noxa BH3 TR-FRET. As to the method: The dose-dependent inhibition by the compounds described in this invention of the interaction between MCL-1 and the BH3 domain of Noxa (both human) was determined using a steady state binding competition assay with time-resolved fluorescence energy transfer (TR-FRET) readout. […] The MBP-MCL-1 was purchased from Beryllium (Bedford, Mass., USA). The expression and purification of this protein construct has been described elsewhere (DOI:10.1371/journal.pone.0125010). The Noxa BH3-derived peptide can be obtained from e.g. Biosyntan (Berlin, Germany), 50812.1.
Chain of MCL-1 (Q07820 whole entry K194A/K197A/R201A, looked up, the tested form may be a part): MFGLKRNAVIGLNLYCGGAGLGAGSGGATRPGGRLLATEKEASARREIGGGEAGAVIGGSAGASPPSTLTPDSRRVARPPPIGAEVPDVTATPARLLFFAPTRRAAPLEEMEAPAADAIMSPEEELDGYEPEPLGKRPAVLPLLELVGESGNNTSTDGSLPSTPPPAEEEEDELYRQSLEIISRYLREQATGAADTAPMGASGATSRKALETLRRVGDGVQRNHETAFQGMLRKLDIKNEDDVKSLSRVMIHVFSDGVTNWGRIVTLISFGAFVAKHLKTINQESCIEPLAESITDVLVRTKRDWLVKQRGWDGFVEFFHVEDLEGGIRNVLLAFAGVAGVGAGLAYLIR
For that, 100-fold concentrated DMSO solutions were prepared by serial dilutions (1:3.4) of a 2 mM stock solution in a clear, 384-well microtiter plate (Greiner Bio-One, Frickenhausen, Germany). From there, 50 nl were transferred in a dark test plate (Greiner Bio-One, Frickenhausen, Germany). […] This was followed by a 10-minute incubation step at 22° C. for pre-equilibration of the putative complex between MBP-MCL-1 and the compounds.
The mixture was incubated in the dark for one hour at 22° C. and then overnight at 4° C.
The resulting data (ratio) were normalized, taking 0% inhibition as the mean value of control measurements (usually 32 data points) where all reagents were included. In this case 50 nl DMSO were used instead of compounds. […] IC50 values were determined by regression analysis based on a 4 parameter equation (minimum, maximum, IC50, Hill; Y=Max+(Min−Max)/(1+(X/IC50)^Hill) using the Screener Software (Genedata).

Where [12] appears, read: read-out: Cytotox SUDHL10 [M] (median), IC50, median.

Structures can show the parent of a compound that is named as a salt. Where two headings read alike, the source gives them in different places.

As usually defined, the EC50 is the concentration at which the effect is half-maximal. Regarding `Cc1c2c(nn1C)COCCn1c(C(=O)O)c(CCCOc3cccc4ccccc34)c3ccc(Cl)c-2c31` (racemic) [Example 87, (rac)-11-chloro-9,10-dimethyl-1-{3-[(naphthalen-1-yl)oxy]propyl}-4,5,7,9-tetrahydropyrazolo[4′,3′:7,8][1,4]oxazonino[6,5,4-hi]indole-2-carboxylic acid], the IC50 in series [1] (Homo sapiens, SU-DHL10, 5 h, read-out: Cytotox SUDHL10 [M] (median), IC50, median) was determined as 2.6e-07 M; in [2] (Homo sapiens, SU-DHL-5, 72 h), 5.5e-07 M; in series [3] (72 h), 1.52e-06 M; in series [4] (Homo sapiens, AMO1, 72 h) it was 3.8e-07 M; in series [6] (72 h) it was 4.7e-06 M; in series [8], 1.32e-06 M. Besides, the EC50 was 210 nM in series [5] (Homo sapiens, SU-DHL10, 3 h) and 170 nM in series [7] (Homo sapiens, SU-DHL-5, 3 h).

Take `CCc1c2c(nn1C)COCC(O)CCn1c(C(=O)O)c(CCCOc3cccc4cc(F)ccc34)c3ccc(Cl)c-2c31` (centres unmarked) [Example 100, 4-chloro-3-ethyl-7-{3-[(6-fluoronaphthalen-1-yl)oxy]propyl}-12-hydroxy-2-methyl-2,10,11,12,13,15-hexahydropyrazolo[4′,3′:9,10][1,6]oxazacycloundecino[8,7,6-hi]indole-8-carboxylic acid-N-ethylethanamine salt]: the IC50 was 1.8e-07 M in series [1] (setting [12]); 1.9e-07 M in series [2]; 1.18e-06 M in series [3] (72 h); 6.7e-07 M in series [4]; 5e-06 M in [6]; 1.8e-07 M in series [9]. Further, in series [8], the IC50 is 1.85e-07 M. Also, the EC50 is 120 nM in [5] and 220 nM in [7].

For the compound `Cc1c2c(nn1C)CN(C)CCCCn1c(C(=O)O)c(CCCOc3cccc4ccccc34)c3ccc(Cl)c-2c31` (single isomer, unassigned; enantiomer 2) [Example 13, (−)-4-chloro-2,3,14-trimethyl-7-[3-(naphthalen-1-yloxy)propyl]-10,11,12,13,14,15-hexahydro-2H-pyrazolo[3′,4′:8,9][1,6]diazacycloundecino[10,11,1-hi]indole-8-carboxylic acid-N-ethylethanamine salt (Enantiomer 2)], the values for the IC50 in [2], in [9] and in series [10] were 6.4e-06 M, 6.9e-06 M and 1.22e-05 M, respectively.

Turning to `Cc1c2c(nn1C)COCC(F)(F)CCn1c(C(=O)O)c(CCCOc3cccc4ccccc34)c3ccc(Cl)c-2c31` (single isomer, unassigned; enantiomer 1) [Example 56, 4-chloro-12,12-difluoro-2,3-dimethyl-7-{3-[(naphthalen-1-yl)oxy]propyl}-2,10,11,12,13,15-hexahydropyrazolo[4′,3′:9,10][1,6]oxazacycloundecino[8,7,6-hi]indole-8-carboxylic acid-N-ethylethanamine salt—Enantiomer 1], the IC50 was found to be 3.3e-07 M in series [1] (setting [12]); 3.4e-07 M in series [2]; 1.23e-06 M in series [3] (72 h); 4.4e-07 M in [4]; 3.3e-06 M in series [6]; 2.2e-07 M in series [9]. In series [8], the IC50 amounted to 7.79e-07 M. The figures for the EC50 in series [5] and in series [7] were 310 nM and 130 nM, respectively.

As for `Cc1c2c(nn1C)COCCCCn1c(C(=O)O)c(CCCOc3cccc4cc(F)ccc34)c3ccc(Cl)c-2c31` (single isomer, unassigned; enantiomer 2) [Example 17, (−)-4-chloro-7-{3-[(6-fluoronaphthalen-1-yl)oxy]propyl}-2,3-dimethyl-2,10,11,12,13,15-hexahydropyrazolo[4′,3′:9,10][1,6]oxazacycloundecino[8,7,6-hi]indole-8-carboxylic acid-N-ethylethanamine salt (Enantiomer 2)], the IC50 turned out to be 6.6e-07 M in [1] (setting [12]); 2.1e-07 M in series [2]; 9.86e-07 M in series [3] (IC50, median, SNU-389, 72 h); 1.2e-06 M in [6]; 2.2e-07 M in [9]; 6.7e-06 M in series [10]. The EC50 was determined as 380 nM in series [5] and 290 nM in series [7].

Regarding `CCc1c2c(nn1C)CN(CCN1CCOCC1)CCCCn1c(C(=O)O)c(CCCOc3cccc4cc(F)ccc34)c3ccc(Cl)c-2c31` (single isomer, unassigned; enantiomer 2) [Example 143, 4-chloro-3-ethyl-7-{3-[(6-fluoronaphthalen-1-yl)oxy]propyl}-2-methyl-14-[2-(morpholin-4-yl)ethyl]-10,11,12,13,14,15-hexahydro-2H-pyrazolo[3′,4′:8,9][1,6]diazacycloundecino[10,11,1-hi]indole-8-carboxylic acid (Enantiomer 2)], the values for the IC50 in series [2] and in series [11] were 9.4e-06 M and 62 nM, respectively.

As to `Cc1c2c(nn1C)COCCCCn1c(C(=O)O)c(CCCOc3cccc4ccccc34)c3ccc(Cl)c-2c31` (single isomer, unassigned; enantiomer 2) [Example 27, 4-chloro-2,3-dimethyl-7-[3-(naphthalen-1-yloxy)propyl]-2,10,11,12,13,15-hexahydropyrazolo-[4′,3′:9,10][1,6]oxazacycloundecino[8,7,6-hi]indole-8-carboxylic acid-N-ethylethanamine salt (Enantiomer 2)], the IC50 in series [2] was 7.8e-06 M; in series [10], 1.61e-05 M.
